Measured values published in paper PMC6385020 (Molecules, 2019).
“And” between values parts separate entries of the source, which are not always exact repeats. Equal entries are not always repeated.

What was measured:
[1] = tested on: G4-DNA structures (F-21-T, F-myc-T, F-21CTA-T, F-CEB25-WT-T); assay: FRET-melting assay (ligand-induced stabilization); format: binding, human; details: 1 µM ligand, 0.2 µM DNA, all G4-DNA structures, K+1 or K+10 buffer
Description: (§1) For the G4-FID assay, the oligonucleotides were dissolved in K^+100 buffer (10 mM lithium cacodylate buffer pH 7.3, 100 mM KCl, 1% DMSO). Oligonucleotide concentrations were determined on the basis of their absorbance at 260 nm. For the fluorimetric titration, the oligonucleotides were dissolved in K^+100 buffer without DMSO. For the FRET-melting assay, the oligonucleotides were dissolved in K^+1 buffer (10 mM lithium cacodylate buffer pH 7.3, 1 mM KCl, 99 mM LiCl) except for F-21-T. F-21-T was dissolved in K^+10 buffer (10 mM lithium cacodylate buffer pH 7.3, 10 mM KCl, 90 mM LiCl).
(§2) Prior to use, all oligonucleotides were pretreated by heating at 95 °C for 5 min, then rapidly cooled to 4 °C to favor the intramolecular folding by kinetic trapping. Duplex-DNA ds26 was prepared by heating the self-complementary strand at 90 °C for 5 min in K^+1 buffer followed by a slow cooling over 6 h.
The stabilization of the compounds with a quadruplex-structure was monitored via FRET-melting assay performed in 96-well plates on a real-time PCR apparatus 7900HT Fast Real-Time PCR System as follows: 5 min at 25 °C and then an increase of 0.5 °C every minute until 95 °C. Each experimental condition was tested and replicated in a volume of 25 μL for each sample. The FRET-melting assay was performed with three dual fluorescently labeled DNA oligonucleotide sequences oligonucleotides. The donor fluorophore was 6-carboxyfluorescein, FAM, and the acceptor fluorophore was 6-carboxytetramethylrhodamine, TAMRA. The 96-well plates (Applied Biosystems) were prepared by aliquoting the annealed DNA (0.2 μM in K^+1 or K^+10 buffer) into each well, followed by 1 μL of the ligand ([…] (5 eq) in DMSO). For competition experiments, duplex competitors were added to 200 nM quadruplex sequences at final concentrations of 3.0 μM (15 eq) and 10.0 μM (50 eq), with a total reaction volume of 25 μL, with the labeled oligonucleotide (0.2 μM) and the ligand (1 μM). Measurements were made with excitation at 492 nm and detection at 516 nm. The change in the melting temperature at 1.0 μm compound concentration, ΔTm (1.0 μM), was calculated from at least two experiments by subtraction of the blank from the averaged melting temperature of each compound (1.0 μM). The final analysis of the data was carried out using Origin Pro 8.6 data analysis.

[2] = tested on: 22AG human telomeric sequence G4; assay: TO G4-FID assay; format: binding; details: TO 2 eq, K+100 buffer
Description: as §1, §2
(§3) Each G4-FID assay was performed in a 96-well Non-Binding Surface black with black bottom polystyrene microplates (Corning). Every ligand was tested on a line of the microplate, in duplicate. The microplate was filled with (a) K^+100 solution (qs for 200 μL), (b) 10 μL of a solution of pre-folded oligonucleotides (5 μM) and fluorescent probe (TO/TO-PRO-3 (10 μM—2 eq) or PhenDV (7,5 µM—1.5 eq)), and (c) an extemporaneously prepared 5 μM ligand solution in K^+100 buffer (0 to 100 μL) along the line of the microplate, i.e., from column A to column H: 0, 0.125, 0.25, 0.375, 0.5, 0.625, 0.75, 1.0, 1.25, 1.5, 2.0, and 2.5 μM. After 5 min of orbital shaking at 500 rpm, fluorescence is measured using the following experimental parameters: positioning delay of 0.5 s, 20 flashes per well, emission/excitation filters for TO at 485/520, TO-PRO-3 at 620/670, and PhenDV at 355/520 gain adjusted at 80% of the fluorescence from the most fluorescent well (i.e., a well from column A for TO and a well from column H).
(§4) The percentage of TO displacement is calculated from the fluorescence intensity (F), using (1) % TO displacement=1−F/F0 where F0 is the fluorescence from the fluorescent probe bound to DNA without added ligand.
(§5) The PhenDV displacement is calculated from the fluorescence intensity F; F(ligand+probe), which refers to the fluorescence of the probe in presence of the ligand (without G4); and F0, which is the fluorescence without added ligand. The term F(ligand+probe) is necessary as the ligand can quench the fluorescence of the probe. The percentage of displacement is then plotted as a function of the concentration of the added ligand. The DNA affinity was evaluated by the concentration of ligand required to decrease the fluorescence of the probe by 50%, was noted DC50, and was determined after non-linear fitting of the displacement curve.

[3] = tested on: CEB25-WT minisatellite sequence G4; assay: TO G4-FID assay; format: binding; details: TO 2 eq, K+100 buffer
Description: as §1, §2, §3, §4, §5

c-myc G4 = assay: TO G4-FID assay; format: binding; details: TO 2 eq, K+100 buffer
Description: as §1, §2, §3, §4, §5

[4] = tested on: 21CTA human telomeric sequence variant G4; format: binding; details: K+100 buffer; for % of TO displacement at 1 µM of ligand: TO 2 eq; for % of TOPRO3 displacement at 1 µM of ligand: TO-PRO-3 2 eq
Description: as §1, §2, §3, §4, §5

duplex ds26 DNA = assay: TO G4-FID assay; format: binding; details: ds26, K+100 buffer
Description: as §1, §2
Each G4-FID assay was performed in a 96-well Non-Binding Surface black with black bottom polystyrene microplates (Corning). Every ligand was tested on a line of the microplate, in duplicate. […] After 5 min of orbital shaking at 500 rpm, fluorescence is measured using the following experimental parameters: positioning delay of 0.5 s, 20 flashes per well, emission/excitation filters for TO at 485/520, TO-PRO-3 at 620/670, and PhenDV at 355/520 gain adjusted at 80% of the fluorescence from the most fluorescent well (i.e., a well from column A for TO and a well from column H).
as §4
The PhenDV displacement is calculated from the fluorescence intensity F; F(ligand+probe), which refers to the fluorescence of the probe in presence of the ligand (without G4); and F0, which is the fluorescence without added ligand. The term F(ligand+probe) is necessary as the ligand can quench the fluorescence of the probe. […]

[5] = tested on: 22AG (DNA, G4) AGGGTTAGGGTTAGGGTTAGGG; assay: G4-FID, thiazole orange displacement; details: 100 mM KCl; 10 mM lithium cacodylate pH 7.3, 1% DMSO; thiazole orange displaced; 1 µM compound, 0.25 µM DNA

| Structure (SMILES) | ∆Tm (ligand-induced stabilization, FRET-melting) [1] [°C] | % of TO displacement at 1 µM of ligand [2] [%] | % of TO displacement at 1 µM of ligand [3] [%] | % of TO displacement at 1 µM of ligand (c-myc G4) [%] | % of TO displacement at 1 µM of ligand [4] [%] | % of TOPRO3 displacement at 1 µM of ligand [4] [%] | % of TO displacement at 1 µM of ligand (duplex ds26 DNA) | % TO displacement [5] [%] |
| --- | --- | --- | --- | --- | --- | --- | --- | --- |
| [Cl-].[Cl][Pt+].c1ccc(-c2cccc(-c3ccccn3)n2)nc1 [Pt-tpy] | < 10 | 21 | 14 | 41 | 24 | 23 | – | – |
| CN(C)c1ccc(/C=C/c2cc(-c3ccccn3)nc(-c3ccccn3)n2)cc1.[Cl-].[Cl][Pt+] [Pt-vpym, Chloro-(E)-4-(2-(2,6-di(pyridin-2-yl)pyrimidin-4-yl)vinyl)-N,N-dimethylaniline-platinum(II) Chloride] | < 10 | – | – | – | – | 32 | – | – |
| Cc1ccc(-c2cc(-c3ccccn3)nc(-c3ccccn3)c2)cc1.[Cl-].[Cl][Pt+] [Pt-ttpy] | > 10 | 80 | 66 | 64 | 87 | 62 | < 20% | > 80 |
| [Cl-].[Cl][Pt+].c1ccc(-c2cc(-c3ccc(OCCN4CCCC4)cc3)nc(-c3ccccn3)n2)nc1 [Pt-cpym, Chloro-(2,4-di(pyridin-2-yl)-6-(4-(2-(pyrrolidin-1-yl)ethoxy)phenyl)pyrimidine)-platinum(II) Chloride] | < 10 | 67 | 43 | 33 | 82 | 25 | 2% | < 60 |
| CN(C)CCCNCc1ccc(-c2cc(-c3ccccn3)nc(-c3ccccn3)c2)cc1.[Cl-].[Cl][Pt+] [Pt-ctpy] | > 10 | 88 | 82 | 76 | 93 | 83 | < 20% and 17% | > 80 |
